Source: patent publication EP4520824A1, “DEO[…] GENERATES FL[…] USES THEREOF” (Ústav organické chemie a biochemie Akademie ved Ceske …, priority 2023, dated 2025)

Test system: chromogenic deoxyribozyme, optimized variant (Chro 4, SEQ ID NO: 39)
Assay: Self-phosphorylation kinetics of chromogenic deoxyribozyme with 4-NPP (ligation assay)
Type: biochemical
Conditions: self-phosphorylation with 4-NPP as substrate; 200 mM KCl, 1 mM ZnCl2, 50 mM HEPES pH 7.4

`O=[N+]([O-])c1ccc(OP(=O)(O)O)cc1` [4-NPP, 4-nitrophenyl phosphate] was tested, and the catalytic efficiency was ~10^3 M^-1 min^-1.
